From US7384975B2, “Substituted furochromenes, preparation thereof and their antiinflammatory action” (GlaxoSmithKline Istrazivacki Centar Zagreb d.o.o., priority 2003, dated 2008)

Test system: Balb/C mice
Test: Model of lung eosinophilia in mice (ovalbumin sensitization and provocation)
Format: in vivo
Conditions: i.n. 2 mg/kg daily from 2 days prior to the provocative test until the end, lavage 48 hours after ovalbumin provocation
Protocol: Model of Lung Eosinophilia in Mice
Male Balb/C mice (Charles River) of 20-25 g of body weight were randomly divided into groups. They were sensitized by i.p. application of ovalbumin (Sigma) on days zero and fourteen. On day twenty the mice were subjected to a provocative test by i.n. application of ovalbumin (positive control and test groups) or PBS (negative control). After 48 hours the animals were anesthetized and the lungs were rinsed with 1 mL of PBS. The cells were centrifuged on Cytospin 3 cytocentrifuge (Shandon). Then the cells were stained with Diff-Quick (Dade) and the percentage of eosinophils was determined by differential counting of at least 100 cells.
Beclomethazone was used as a standard substance in addition to positive and negative controls. The compound was applied daily i.n. in a dose of 2 mg/kg for 2 days prior to the provocative test and until the end of the investigation.
The compound 13 reduced the number of eosinophils in the lavage and histological preparations of lungs for 50% in relation to the positive control group.

SMILES: O=c1oc2cc(O)cc(O)c2c(O)c1-c1cc2c(=O)oc3cc(O)cc(O)c3c2o1 [Compound 13, 7,9-Dihydroxy-2-(4,5,7-trihydroxy-2-oxo-2H-chromene-3-yl)-4H-furo[3,2-c]chromene-4-one]
- reduction of the number of eosinophils in the lavage and histological preparations of lungs in relation to the positive control group: 50%
